Columns and labels:
Type in all cases: cell-based, rat
[1] = system: PC12 cells; test: Bt2cAMP-induced neurite formation-promoting effect in PC12 cells; conditions: 0.5 mM Bt2cAMP; for neurite formation ratio / neurite formation-promoting effect: compound 0.05-5 μM, FIGS. 1 and 2; for neurite formation-promoting effect compared between compounds: comparison with β-sitosterol or campesterol
Method: Using rat adrenal medullary pheochromocytoma-derived PC12 cells (obtained from RIKEN BRC) as a neurodifferentiative model, β-sitosterol, stigmasterol and campesterol were evaluated in terms of the Bt2cAMP (dibutyryladenosine 3′,5′-cyclic monophosphate)-induced neurite formation-promoting effect thereof.
First, PC12 cells were floated on an RPMI-1640 medium (from Sigma Aldrich Corporation) containing 10% equine serum (inactivated), 5% bovine fetal serum (inactivated), 100 U/mL of penicillin G and 100 μg/mL of streptomycin, and well suspended therein so as to be single cells. The suspension of PC 12 cells were sowed on a collagen-coated 96-well plate in an amount of […] cells/90 μL/well, and incubated in a 5% CO2 vapor phase at 37° C. for 24 hours. After incubation, a Dulbecco PBS(−) (Dulbecco phosphate buffer physiological saline water not containing Ca and Mg) added with Bt2cAMP at a concentration of 10 mM, RPMI-1640 medium added with β-sitosterol at a different concentration, or RPMI-1640 medium not added with β-sitosterol was added to the culture medium in each well in an amount of 5 μL each, and further incubated for 24 hours. At that time, the final concentration of each reagent added to the medium in each well was 0.5 mM with no exception for Bt2cAMP, and was 0 μM, 0.05 μM, 0.1 μM, 0.5 μM, 1 μM or 5 μM for β-sitosterol. After incubation, the culture medium was removed from each well, and 1% glutaraldehyde-containing phosphate buffer (0.1 M, pH 7.2) was dispensed in each well in an amount of 100 μL/well, and then left as such for 20 minutes to fix the cells. Subsequently, the glutaraldehyde-containing phosphate buffer was removed from each well, then a Giemsa stain fluid was dispensed in an amount of 100 μL/well, and left as such for 2 to 3 minutes for staining. After staining, the Giemsa stain fluid was removed from each well, and the stained sample in each well was washed twice with ultra-pure water, and then dried.
The number of the positive cells relative to the total number of cells (the total number of cells judged to be positive or negative) was calculated as percentage to be a neurite formation ratio. Here, for positive or negative judgement, 300 to 400 cells/well were observed.
PC12 cells were incubated according to the same method as above except that stigmasterol or campesterol, or a comparative compound of cholesterol or progesterone was used in place of β-sitosterol, and the neurite formation ratio in each case was calculated.
Graphs were drawn by plotting the neurite formation ratio relative to the concentration of β-sitosterol, campesterol or cholesterol added to the culture medium of PC 12 cells, and shown in FIG. 1. Graphs were drawn by plotting the neurite formation ratio relative to the concentration of β-sitosterol, stigmasterol or progesterone added to the culture medium of PC 12 cells, and shown in FIG. 2. In FIGS. 1 and 2, the horizontal axis is a logarithmic scale. The neurite formation ratio is shown as SD, and SD is a standard deviation in the three tests carried out in the same manner. “*” indicates p<0.05, and “**” indicates p<0.01. The same shall apply to the expression of the neurite formation ratio in FIG. 3, as measured in the following experiment (b).

[2] = system: PC12 cells; test: NGF-induced neurite formation-promoting effect in PC12 cells; conditions: 10 ng/mL NGF, β-sitosterol 0.05-5 μM, 48 hours; FIG. 3
Method: Here, NGF (nerve growth factor) differing from Bt2cAMP in point of signaling pathways was used as an inducing agent for neurite formation to evaluate the NGF-induced neurite formation-promoting effect of β-sitosterol.
Specifically, PC12 cells were incubated according to the same method as above except that an NGF-added Dulbecco PBS(−) was used in place of the Bt2cAMP-added Dulbecco PBS(−) and the incubation time for the PC12 cells after addition of NGF and β-sitosterol thereto was 48 hours, and the neurite formation ratio was calculated. The final concentration of each reagent added to the culture medium of PC12 cells in each well was 10 ng/mL with no exception for NGF, and was 0 μM, 0.05 μM, 0.1 μM, 0.5 μM, 1 μM or 5 μM for β-sitosterol. A graph was drawn by plotting the neurite formation ratio relative to the concentration of β-sitosterol added to the culture medium of PC 12 cells, and shown in FIG. 3.

[3] = system: PC12 cells; test: Cell toxicity test (Calcein-AM, number of living PC12 cells); conditions: 0.5 mM Bt2cAMP, β-sitosterol 0.05-5 μM, 24 hours; FIG. 4
Method: For confirming that the neurite formation-promoting effect of each compound recognized in the above-mentioned evaluations (a) and (b) is not caused by stress (cell toxicity) given to cells, the number of living PC12 cells incubated in a culture medium added with Bt2cAMP and β-sitosterol was evaluated using Calcein-AM (from Dojindo Molecular Technologies, Inc.). Calcein-AM is a cell membrane-permeable compound, and when taken in living cells, it is hydrolyzed with esterase to release calcein. […] Accordingly, after a group of cells were processed with Calcein-AM so as to make Calcein-AM taken by the living cells, and then the cells were disrupted to measure the fluorescence intensity by calcein, whereby the number of the living cells in the group of cells can be known. […]
The fluorescence intensity of the sample in each well processed as above was measured at an excitation wavelength of 485 nm and a detection wavelength of 527 nm. The data of the measured fluorescence intensity were plotted relative to the concentration of β-sitosterol added to the culture medium of PC12 cells, and the resultant graph is shown in FIG. 4. […] The fluorescence intensity is a relative value based on the actual value of the fluorescence intensity, 100%, measured in the system not added with β-sitosterol, and is shown as ±DS. […]

[4] = system: PC12 cells; test: NGF-inductive neural differentiation-promoting effect (neurofilament immunofluorescent staining); conditions: 10 ng/mL NGF, 0.5 μM β-sitosterol, 48 hours; FIG. 5
Method: A neurofilament was used as a neural differentiation marker. This was stained according to an immunofluorescent staining method for evaluating the neural differentiation promoting effect of β-sitosterol.
PC12 cells were floated in an RPMI-1640 medium containing 10% equine serum (inactivated), 5% bovine fetal serum (inactivated), 100 U/mL of penicillin G and 100 μg/mL of streptomycin and well suspended therein to be single cells of 1.4×10^4 cells/mL. The suspension of PC12 cells was sown in a collagen-coated 8-well chamber slide at 5.0×10^3 cells/360 μL/well, and incubated in a 5% CO2 vapor phase at 37° C. for 24 hours. After incubation, an NGF-added Dulbecco PBS(−) (NGF solution), and a β-sitosterol-added RPMI-1640 medium (β-sitosterol solution) were added to the medium in each well in an amount 20 μL/well each, and further incubated for 48 hours. At that time, the final concentration of each reagent added to the medium in each well was 10 ng/mL for NGF, and was 0.5 μM for β-sitosterol. After incubation, the medium was removed from each well, which was then washed with PBS(−) (phosphate buffer physiological saline water (not containing Ca and Mg)), processed with a 4% formaldehyde solution dispensed in each well for 30 minutes, and thereafter washed three times with PBS(−) for 3 minutes. […]

SMILES	neurite formation ratio / neurite formation-promoting effect ([1]; 24 hours)	neurite formation-promoting effect compared between compounds [1]	other results
CC(=O)[C@H]1CC[C@H]2[C@@H]3CCC4=CC(=O)CC[C@]4(C)[C@H]3CC[C@]12C [Progesterone, progesterone, reference compound]	extremely weak	–	neurite formation ratio ([1]; compound added in an amount of 0.1 μM, 24 hours, FIG. 2): recognized to increase the neurite formation ratio
CC[C@H](CC[C@@H](C)C1CCC2C3CC=C4C[C@@H](O)CC[C@]4(C)C3CC[C@@]21C)C(C)C (stereo partly drawn) [β-sitosterol]	significantly increased	stronger neurite formation-promoting effect than the system added with campesterol	neurite formation ratio [2]: significantly increased; fluorescence intensity (calcein), relative to system not added with β-sitosterol [3]: changed little; number of living cells [3]: does not decrease; neurofilaments (bright spots in FITC fluorescently-stained image) versus NGF alone [4]: larger number of neurofilaments appeared
CC[C@H](/C=C/[C@@H](C)C1CCC2C3CC=C4C[C@@H](O)CC[C@]4(C)C3CC[C@@]21C)C(C)C (stereo partly drawn) [stigmasterol]	significantly increased	no difference in the neurite formation-promoting effect	–
CC(C)CCC[C@@H](C)[C@H]1CC[C@H]2[C@@H]3CC=C4C[C@@H](O)CC[C@]4(C)[C@H]3CC[C@]12C [cholesterol, reference compound]	not recognized to have a neurite formation-promoting effect	–	–
CC(C)[C@H](C)CC[C@@H](C)[C@H]1CC[C@H]2[C@@H]3CC=C4C[C@@H](O)CC[C@]4(C)[C@H]3CC[C@]12C [campesterol]	significantly increased	–	–

Reference: patent publication US20210207086A1, “NE[…], INTERNAL AGENT, CULTURE MEDIUM ADDITIVE, CELL DILUENT ADDITIVE, CULTURE MEDIUM, AND CELL DILUENT” (LAIMU CORPORATION, priority 2018, published 2021)
